Experimental data reported in article PMC10674894 (Viruses, 2023).

How the values were obtained:
Vero cells = assay: Cytotoxicity MTT assay in Vero cells (MNTD, CC50); type: cell-based, African green monkey
CHIKV DRDE-07 = assay: In vitro screening against CHIKV (CPE inhibition and MTT cell viability); type: cell-based, chikungunya virus; details: for CPE / % Cell viability: Table S1, CHIKV-infected Vero cells; for CPE: arbitrary score of cytopathic effect at >48 hpi; for % Cell viability: MTT assay

Row | SMILES | MNTD (Vero cells; Table S1, Vero cells) [µM] | MNTD (Vero cells; maximum nontoxic dose in Vero cells, MTT) [µM] | Cell Viability (CHIKV DRDE-07; CHIKV-infected Vero cells treated at MNTD, 72 hpi, MTT, cell control + DMSO = 100%) [%] | CPE (CHIKV DRDE-07) | % Cell viability (CHIKV DRDE-07; 72 hpi) [%]
1 | Brc1cc2c(c3ncccc13)Oc1ncccc1O2 [DCR 1, 5-bromo-7,12-dioxa-1,11-diaza-benzo[a]anthracene] | 50 | 50 | 72 | ++ (50-30% (++)) | 
2 | COc1ccc(/C(=N\NC(=O)c2cccnc2)c2ccccc2)cc1 [DCR48, (Z)-N'-((4-methoxyphenyl)(phenyl)methylene)nicotinohydrazide] | 31.25 |  |  | ++++ (>60% (++++)) | 20.87
3 | O=C(N/N=C/c1ccccc1[N+](=O)[O-])c1cccnc1 [DCR20, (E)-N'-(2-nitrobenzylidene)nicotinohydrazide] | 31.25 |  |  | ++++ (>60% (++++)) | 22.69
4 | CCOc1ccc(C2c3c(ccc4ccccc34)Oc3ccc4ccccc4c32)cc1 [DCR114, 2‐(4‐ethoxyphenyl)‐13‐oxapentacyclo[12.8.0.0³,¹².0⁴,⁹.0¹⁷,²²]docosa‐1(14),3,5,7,9,11,15,17(22),18,20‐decaene] | 31.25 |  |  | ++++ (>60% (++++)) | 4.05
5 | N#Cc1ccccc1NCc1ccccc1 [DCR147, 2-Benzylamino-benzonitrile] | 125 |  |  | ++++ (>60% (++++)) | 17.97
6 | CC1=C(C(=O)OCCN(C)C)C(c2ccc(C)cc2)NC(=O)N1 (stereo not shown) [DCR74, 2-(dimethylamino)ethyl 6-methyl-4-(4-methylphenyl)-2-oxo-1,2,3,4-tetrahydropyrimidine-5-carboxylate] | 31.25 |  |  | ++++ (>60% (++++)) | 12.75
7 | O=C1NC(c2ccc(C(F)(F)F)cc2)c2c(ccc3ccccc23)O1 (stereo not shown) [DCR70, 1-[4-(trifluoromethyl)phenyl]-1H,2H,3H-naphtho[1,2-e][1,3]oxazin-3-one] | 45.44 |  |  | ++++ (>60% (++++)) | 10.59
8 | Cc1ccc(C2C3=C(CC(C)(C)CC3=O)OC3=C2C(=O)CC(C)(C)C3)cc1 [DCR127, 3,3,6,6‐tetramethyl‐9‐(4‐methylphenyl)‐2,3,4,5,6,7,8,9‐octahydro‐1H‐xanthene‐1,8‐dione] | 125 |  |  | ++++ (>60% (++++)) | 10.21
9 | O=C(c1cccnc1)n1nc(-c2ccc(O)cc2)cc1-c1cccc([N+](=O)[O-])c1 [DCR63, 4-[5-(3-nitrophenyl)-1-(pyridine-3-carbonyl)-1H-pyrazol-3-yl]phenol] | 31.25 |  |  | ++++ (>60% (++++)) | -4.2
10 | O=C(NNC(=O)c1cccnc1)c1ccc(Cl)cc1 [DCR6, N'-(4-chlorobenzoyl)nicotinohydrazide] | 31.25 |  |  | ++++ (>60% (++++)) | 16.98
11 | COc1ccc(C2NC(=O)NC(C)=C2C(=O)OCC[N+](C)(C)C)cc1 (stereo not shown) [DCR107, {2‐[4‐(4‐methoxyphenyl)‐6‐methyl‐2‐oxo‐1,2,3,4‐tetrahydropyrimidine‐5‐carbonyloxy]ethyl}trimethylazanium] | 62.5 |  |  | ++++ (>60% (++++)) | 13.22
12 | O=C1NC(c2ccc(OC(F)(F)F)cc2)c2c(ccc3ccccc23)O1 (stereo not shown) [DCR71, 1-[4-(trifluoromethoxy)phenyl]-1H,2H,3H-naphtho[1,2-e][1,3]oxazin-3-one] | 43.42 |  |  | ++++ (>60% (++++)) | 7.44
13 | CC(=O)Cc1noc(-c2cc(Cl)ccc2Cl)n1 [DCR83, 1-[5-(2,5-dichlorophenyl)-1,2,4-oxadiazol-3-yl]propan-2-one] | 230.55 |  |  | ++++ (>60% (++++)) | 10.49
14 | CC(=O)Cc1noc(-c2ccncc2)n1 [DCR82, 1-[5-(pyridin-4-yl)-1,2,4-oxadiazol-3-yl]propan-2-one] | 125 |  |  | ++++ (>60% (++++)) | 14.42
